≈ marks a conversion by molar mass, not a printed value. Where two headings read alike, the source gives them in different places.
What was measured:
THP-1 cells = assay: Example C: compound screen, viable THP-1 cell count after 5 hours +/- LPS; assay type: cell-based, Human; settings: for ability to inactivate pro-inflammatory THP-1 cells, in words (relative to benchmark AC): LPS-treated THP-1 cells
Description: Background: THP-1 is a human acute myeloid leukemia (AML) cell line that can be induced into a macrophage-like cell with vitamin-D3 (vit-D3). In the macrophage, LPS (lipopolysaccharide; endotoxin) stimulation of toll-like receptor 4 (TLR-4) leads to NF-κB activation and secretion of inflammatory cytokines but also the priming of programmed death pathways through RIP and Caspase 8. The balance of this complex regulatory network is dependent on highly specific kinases, enzymes that require ATP. Disruption of either cytosolic pH or ATP availability/energy level uncouples this control network and the can macrophage shift away from production of inflammatory cytokines towards a programmed death event, which has the net effect of limiting inflammatory damage.

Candida albicans strains = assay: Example N: MIC and MFC (CLSI) against Candida albicans; assay type: cell-based; set-up: MIC at 50% inhibition / MIC at 100% inhibition: unit not given here; settings: for MIC / MFC: Candida albicans, three clinical strains; for MIC: read-out: MIC 100%, Range
Procedure: (§1) The objective of this study was to determine the antifungal activity of eight experimental compounds against a representative panel of fungal isolates, including Candida albicans, C. glabrata, Cryptococcus neoformans, Trichophyton rubrum, Aspergillus fumigatus, and Rhizopus spp. Antifungal activity was measured by minimum inhibitory concentration (MIC) and minimum fungicidal concentration (MFC).
(§2) Three recent clinical strains of each species, taken from the culture collection at the Center for Medical Mycology, Case Western University, were tested.
(§3) Compounds in powder form were dissolved in DMSO. Serial dilutions of each compound were then prepared in RPMI-1640 in a range of […].
(§4) MIC testing was performed according to the CLSI M27-A3 and M38-A2 standards for the susceptibility testing of yeasts and filamentous fungi, respectively (1, 2). Test isolates were subcultured from frozen slants onto potato dextrose agar plates (Trichophyton rubrum was subcultured onto oatmeal plates for conidia production) and checked for purity. Inocula were then prepared in RPMI-1640 (YNB for Cryptococcus) to a concentration of 0.5-2.5×10^3 colony-forming units (CFU)/ml or 0.4-5×10^4 conidia/ml for yeast and filamentous fungi, respectively.
(§5) MFC determinations were performed according to the modifications previously described by Canton et al. and Ghannoum and Isham. (3, 4) Specifically, the total contents of each clear well from the MIC assay were subcultured onto potato dextrose agar. To avoid antifungal carryover, the aliquots were allowed to soak into the agar and then were streaked for isolation once dry, thus removing the cells from the drug source.

Candida glabrata strains = assay: Example N: MIC and MFC (CLSI) against Candida glabrata; assay type: cell-based; settings: for cidal activity (MFC within 4 dilutions of the MIC), in words: 3 strains; for MIC50 / MIC / MFC: Nakaseomyces glabratus; for MIC: read-out: MIC 100%; for MFC: range over Candida glabrata strains, in 48 hr
Procedure: as §1, §2, §3, §4, §5

[1] = tested on: Cryptococcus neoformans strains; assay: Example N: MIC and MFC (CLSI) against Cryptococcus neoformans; assay type: cell-based; set-up: MIC at 50% inhibition: unit not given here; settings: for MIC / MFC: Cryptococcus neoformans, three clinical strains; for MIC: read-out: MIC 100%, Range, incubated for 72 hrs
Procedure: as §1, §2, §3, §4, §5

[2] = tested on: Aspergillus fumigatus strains; assay: Example N: MIC and MFC (CLSI) against Aspergillus fumigatus; assay type: cell-based; settings: for MIC50 / MIC: Aspergillus fumigatus; for MIC: read-out: MIC 100%
Procedure: as §1, §2, §3, §4, §5

Rhizopus strains = assay: Example N: MIC and MFC (CLSI) against Rhizopus; assay type: cell-based, Rhizopus spp.; settings: for MIC50 / MIC: Rhizopus; for MFC: range over Rhizopus strains, in 48 hr
Procedure: as §1, §2, §3, §4, §5

[3] = tested on: Trichophyton rubrum strains; assay: Example N: MIC and MFC (CLSI) against Trichophyton rubrum; assay type: cell-based; settings: for MIC: read-out: MIC 100%, Range, incubated for 96 hrs, three clinical strains; for MFC: three clinical strains
Procedure: as §1, §2, §3, §4, §5

Row | Compound | Reduction in viable THP-1 cell count (percent change) from 0 hours, Mean ± SE (THP-1 cells; Compound (0.1 μM), No LPS) [%] | Reduction in viable THP-1 cell count (percent change) from 0 hours, Mean ± SE (THP-1 cells; Compound (0.1 μM), Plus LPS) [%] | Reduction in viable THP-1 cell count (percent change) from 0 hours, Mean ± SE (THP-1 cells; Compound (1.0 μM), No LPS) [%] | Reduction in viable THP-1 cell count (percent change) from 0 hours, Mean ± SE (THP-1 cells; Compound (1.0 μM), Plus LPS) [%] | MIC (Candida albicans strains; 24 hr) [µg/mL] | MIC (Candida albicans strains; 48 hr) [µg/mL] | MFC (Candida albicans strains; 48 hr) [µg/mL] | MIC50 (Candida glabrata strains; 24 h) [µg/mL] | MIC (Candida glabrata strains; 24 h) [µg/mL] | MIC50 (Candida glabrata strains; 48 h) [µg/mL] | MIC (Candida glabrata strains; 48 h) [µg/mL] | MFC (Candida glabrata strains) [µg/mL] | MIC [1] [µg/mL] | MFC [1] [µg/mL] | MIC50 ([2]; 24 h) [µg/mL] | MIC ([2]; 24 h) [µg/mL] | MIC50 ([2]; 48 h) [µg/mL] | MIC ([2]; 48 h) [µg/mL] | MIC50 (Rhizopus strains; 24 h) [µg/mL] | MIC (Rhizopus strains; 24 h, read-out: MIC 100%) [µg/mL] | further results
1 | CCCCCCOc1cccc(CNc2ccnc3ccccc23)c1 [Compound AC, N-[3-(Hexyloxy)benzyl]quinolin-4-amine] | −7.48 ± 5.82 | −15.14 ± 2.06 | −9.60 ± 1.96 | −44.25 ± 2.53 | 0.12 to 1 (≈ 0.359 to 2.99 µM) | 0.5 to 2 (≈ 1.49 to 5.98 µM) | 2 (≈ 5.98 µM) | 0.5 to 1 (≈ 1.49 to 2.99 µM) | 1 to 2 (≈ 2.99 to 5.98 µM) | 1 to 2 (≈ 2.99 to 5.98 µM) | 2 to 4 (≈ 5.98 to 12 µM) | 4 to 8 (≈ 12 to 23.9 µM) | 0.25 to 4 (≈ 0.747 to 12 µM) | 8 (≈ 23.9 µM) | < 0.12 | 0.25 to 0.5 (≈ 0.747 to 1.49 µM) | 0.5 to 1 (≈ 1.49 to 2.99 µM) | 1 (≈ 2.99 µM) | 0.12 to 0.25 (≈ 0.359 to 0.747 µM) | 0.5 (≈ 1.49 µM) | cidal activity (MFC within 4 dilutions of the MIC), in words (Candida albicans strains; 3 strains): cidal against 2 of the 3 C. albicans strains tested; MIC at 50% inhibition (Candida albicans strains; 24 hrs): <0.12-0.25; MIC at 100% inhibition (Candida albicans strains; 24 hrs): <0.12-1; MIC at 50% inhibition (Candida albicans strains; 48 hrs): <0.12-1; cidal activity (MFC within 4 dilutions of the MIC), in words (Candida glabrata strains): cidal against all of the C. glabrata strains tested; MIC at 100% inhibition ([2]; 48 hrs): 1 µg/mL (≈ 2.99 µM); MIC at 50% inhibition (Rhizopus strains; 24 hrs): <0.12-0.25; MIC at 100% inhibition (Rhizopus strains; 24 hrs): 0.5 µg/mL (≈ 1.49 µM); MIC50 (Rhizopus strains; 48 h): 0.5 µg/mL (≈ 1.49 µM); MIC (Rhizopus strains; 48 h, read-out: MIC 100%): 0.5 to 1 µg/mL (≈ 1.49 to 2.99 µM); MIC (Rhizopus strains; read-out: MIC at 50% inhibition, 48 hr): 0.5 µg/mL (≈ 1.49 µM); MIC (Rhizopus strains; read-out: MIC at 100% inhibition, 48 hr): 0.5 to 1 µg/mL (≈ 1.49 to 2.99 µM); MFC (Rhizopus strains): 16 to 64 µg/mL (≈ 47.8 to 191 µM); MIC [3]: 0.5 to 4 µg/mL (≈ 1.49 to 12 µM); MFC [3]: 0.5 to 4 µg/mL (≈ 1.49 to 12 µM)
2 | CCCCCCCCCCNc1ccnc2ccccc12 [Compound AG, N-(Decyl)quinolin-4-amine] | −6.24 ± 0.69 | −21.28 ± 1.52 | −4.02 ± 2.83 | −38.58 ± 0.73 | 0.5 to 2 (≈ 1.76 to 7.03 µM) | 1 to 4 (≈ 3.52 to 14.1 µM) | 2 to 4 (≈ 7.03 to 14.1 µM) | 0.25 to 1 (≈ 0.879 to 3.52 µM) | 0.5 to 2 (≈ 1.76 to 7.03 µM) | 0.5 to 2 (≈ 1.76 to 7.03 µM) | 0.5 to 2 (≈ 1.76 to 7.03 µM) | 4 (≈ 14.1 µM) | 4 (≈ 14.1 µM) | 8 to 16 (≈ 28.1 to 56.2 µM) | 0.5 to 1 (≈ 1.76 to 3.52 µM) | 1 (≈ 3.52 µM) | 1 to 2 (≈ 3.52 to 7.03 µM) | 1 to 2 (≈ 3.52 to 7.03 µM) | 1 to 2 (≈ 3.52 to 7.03 µM) | 2 (≈ 7.03 µM) | ability to inactivate pro-inflammatory THP-1 cells, in words (relative to benchmark AC) (THP-1 cells): higher activity than the active benchmark compound AC; cidal activity (MFC within 4 dilutions of the MIC), in words (Candida glabrata strains): cidal against all of the C. glabrata strains tested; cidal activity (MFC within 4 dilutions of the MIC), in words ([2]; 3 strains): cidal against one of the A. fumigatus strains (MRL 28397); MIC50 (Rhizopus strains; 48 h): 2 to 4 µg/mL (≈ 7.03 to 14.1 µM); MIC (Rhizopus strains; 48 h, read-out: MIC 100%): 2 to 4 µg/mL (≈ 7.03 to 14.1 µM); MFC (Rhizopus strains): 4 to 16 µg/mL (≈ 14.1 to 56.2 µM); MIC [3]: 0.25 to 2 µg/mL (≈ 0.879 to 7.03 µM); MFC [3]: 0.5 to 2 µg/mL (≈ 1.76 to 7.03 µM)
3 | CCCCCCCCCCNc1ncnc2ccccc12 [Compound AH, N-(Decyl)quinazolin-4-amine] | −9.66 ± 1.34 | −26.55 ± 0.95 | −7.87 ± 0.98 | −35.51 ± 3.90 | 0.12 to 4 (≈ 0.42 to 14 µM) | 1 to 4 (≈ 3.5 to 14 µM) | 4 to 32 (≈ 14 to 112 µM) | 2 (≈ 7.01 µM) | 4 to 8 (≈ 14 to 28 µM) | 4 to 8 (≈ 14 to 28 µM) | 4 to 8 (≈ 14 to 28 µM) | 8 to 64 (≈ 28 to 224 µM) | 0.25 to 2 (≈ 0.876 to 7.01 µM) | 1 to 2 (≈ 3.5 to 7.01 µM) | < 0.12 | 0.25 to 0.5 (≈ 0.876 to 1.75 µM) | 0.25 to 1 (≈ 0.876 to 3.5 µM) | 0.25 to 4 (≈ 0.876 to 14 µM) | 0.25 to 0.5 (≈ 0.876 to 1.75 µM) | 2 (≈ 7.01 µM) | ability to inactivate pro-inflammatory THP-1 cells, in words (relative to benchmark AC) (THP-1 cells): higher activity than the active benchmark compound AC; MIC at 50% inhibition [1]: 0.004-2; cidal activity (MFC within 4 dilutions of the MIC), in words ([1]; 3 isolates): cidal against all 3 neoformans isolates; MFC ([2]; range over Aspergillus fumigatus strains, in 48 hr): > 64 µg/mL; MIC at 100% inhibition (Rhizopus strains; 24 hrs): 2 µg/mL (≈ 7.01 µM); MIC at 50% inhibition (Rhizopus strains; 48 hr): 2 µg/mL (≈ 7.01 µM); MIC at 100% inhibition (Rhizopus strains; 48 hr): 2 µg/mL (≈ 7.01 µM); MIC50 (Rhizopus strains; 48 h): 2 µg/mL (≈ 7.01 µM); MIC (Rhizopus strains; 48 h, read-out: MIC 100%): 2 µg/mL (≈ 7.01 µM); MFC (Rhizopus strains): 64 µg/mL (≈ 224 µM); MIC [3]: 0.25 to 4 µg/mL (≈ 0.876 to 14 µM); MFC [3]: 0.25 to 16 µg/mL (≈ 0.876 to 56.1 µM)

From patent US20250034139A1, “AMINE COMPOUNDS HAVING ANTI-INFLAMMATORY, ANTIFUNGAL, ANTIPARASITIC, AND ANTICANCER ACTIVITY” (PHARMA CINQ, LLC, priority 2013, published 2025)
